Results taken from PubChem BioAssay AID1117361 (Southern Research Institute, 2015).

Target: Protein Tat (Human immunodeficiency virus type 1 group M subtype B (isolate HXB2)) (UniProt P04608)
Assay: HIV-1 Tat–TAR interaction blockers – biochemical, fluorescence polarization, FAM-labeled TAR RNA, counter-screen for Vif-APOBEC3G degradation inhibitor project, dose response (AID 1117361)
Conditions: Tat-TAR RNA binding

Sequence of Protein Tat (Human immunodeficiency virus type 1 group M subtype B (isolate HXB2)) (P04608 whole entry, looked up): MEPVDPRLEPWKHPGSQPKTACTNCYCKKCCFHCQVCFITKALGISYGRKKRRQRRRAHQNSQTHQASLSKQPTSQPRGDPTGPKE

SMILES	IC50 [µM]
CC1=CC2(O)OCCN(CCO)C2=CC1=O (configuration not stated)	34.5
Cc1ncc(CO)c(/C=N/NC(=O)c2cc(O)c(O)c(O)c2)c1O	32.1
CC(=O)NC1=NC(=O)/C(=C/c2cc(C)n(-c3cccc(C(=O)O)c3)c2C)S1	29.7
O=C1CCCC(O)=C1N=Nc1ccc(C(=O)O)cc1	6.47
O=C(O)c1cccc(-n2cccc2/C=C/[N+](=O)[O-])c1	5.57
CC(C)C1Nc2ccc(C(=O)O)cc2C2C=CCC21 (configuration not stated)	4.93
CCn1c(SC(C)C(=O)O)nc2sc3c(c2c1=O)CCC3 (configuration not stated)	70.4
O=C(O)CCc1ccc(S(=O)(=O)Nc2cc(C(F)(F)F)ccc2N2CCCC2)cc1	68.2
CCOC(=O)C(=O)Cc1cccnn1	49.5
O=C1S/C(=C\C=C\c2ccco2)C(=O)N1c1ccc(O)cc1	2
O=C(O)c1cccc2c1NC(C(=O)O)C1CC(Sc3ccccc3[N+](=O)[O-])C(Cl)C21 (configuration not stated)	1.91
C/C(=C\C(=O)c1ccc(C)cc1)Nc1cccc(O)c1	10.4
O=[N+]([O-])c1cc(/C=N\Nc2nccs2)ccc1O	5.68
CN(C)c1ccc2cc(S(=O)(=O)O)cc(O)c2c1	90
COC(=O)c1ccccc1NC(=O)C1CCCC1	4.92
CNc1c(C(=O)O)ccc2c1C(=O)c1ccccc1C2=O	21.9
O=C1C=CC(=O)c2c(O)c(CO)c(CO)c(O)c21	3.48
COC(=O)c1ccc(=O)c2nc3/c(=C/O)c(O)cc(=O)c3[nH]c12	20.3
O=c1oc2c(O)c(O)cc3c(=O)oc4c(O)c(O)cc1c4c23	1.67

SMILES	IC50 [µM]
O=C(O)c1ccc2c(c1)C1C(Cl)C(Sc3ccccc3[N+](=O)[O-])CC1C(c1cccc([N+](=O)[O-])c1)N2 (configuration not stated)	6.3
O=C1/C(=C/c2ccco2)Oc2c1ccc(O)c2CN1CCCCC1	4.3
CC1=NN(c2cccc(C(=O)O)c2)C(=O)/C1=C\C=C\c1ccco1	12
O=C(OCC1O[C@@H](OC(=O)c2cc(O)c(O)c(O)c2)[C@@H](OC(=O)c2cc(O)c(O)c(O)c2)[C@@H](OC(=O)c2cc(O)c(O)c(O)c2)[C@@H]1OC(=O)c1cc(O)c(O)c(O)c1)c1cc(O)c(O)c(O)c1 (some centres not stated)	25.4
O=C(Cc1cccs1)N/N=C/C=C/c1ccco1	8.22
CN(C)S(=O)(=O)c1cccc(NC(=S)N/N=C/c2ccc(O)c(O)c2O)c1	23.2
CN(C)c1ccc(Cc2cc3c(O)ccc(O)c3cc(Cc3ccc(N(C)C)cc3)c2=O)cc1	85.4
CN(C(=S)Nc1cccnc1)c1ccc(O)cc1	27
Oc1ccc(/C=N/NC2=NCCCCC2)c(O)c1	25.1
O=C(O)c1ccc(-n2cccc2/C=C2/NC(=O)N(c3ccccc3)C2=O)cc1	15.7
CC1=C(C#N)C(=O)N(C2CCS(=O)(=O)C2)C(=O)/C1=C\c1ccc(C)o1 (configuration not stated)	1.35
O=C(O)Cc1ccc(N=Nc2c(O)c(C(=O)O)cc3ccccc23)cc1	27.5
COc1cc(C2C(C#N)=C(N)N(c3cccnc3)C3=C2C(=O)CCC3)ccc1O (configuration not stated)	43.4
CC1(C)N([O-])c2cc([N+](=O)[O-])ccc2[N+]1=O	61.3
Cc1cccc2cc(-c3ccccc3)c(-c3ccccc3)c[n+]12	15
C=C(C)C(=O)Nc1cccc(C2=NOC3(C2)C[C@H](C(N)=O)N(C(=O)C(c2ccccc2)c2ccccc2)C3)c1 (some centres not stated)	31.7
Nc1nc(-c2ccco2)c(-c2ccco2)s1	2.39
CC(=O)Nc1ccc(C=C(C#N)c2ccc(C)cc2)cc1	24.7
CCn1c2ccccc2c2cc(NC(=O)c3ccccc3[N+](=O)[O-])ccc21	43.8

SMILES	IC50 [µM]
Cc1ccc(NC(=O)CN(C)C(=O)c2cccc(-n3cccc3)c2)cc1	38
COc1ccc(/C=N/NC(=O)c2cc(O)c(O)c(O)c2)cc1Cn1cc([N+](=O)[O-])cn1	46.7
CC(C(=O)O)N1C(=O)/C(=C/C=C/c2ccco2)SC1=S (configuration not stated)	1.54
Cc1cc(C(=O)COC(=O)c2cc(O)c3ccccc3c2O)c(C)n1CC1CCCO1 (configuration not stated)	9.14
O=[N+]([O-])c1cc2ccccc2c(O)c1O	56.8
CC1S/C(=N/N=C/c2ccco2)NC1=O (configuration not stated)	70.3
O=C(O)COc1ccc2c(c1)O/C(=C\c1ccco1)C2=O	53.1
COc1cc(-c2cccs2)cc(=O)c2c(C)oc(C)c12	22.7
CN(Cc1cnc2nc(N)nc(N)c2n1)c1ccc(C(=O)NC(CCC(=O)O)C(=O)O)cc1 (configuration not stated)	40.1
Cc1cc(-c2n[nH]c(=S)n2/N=C/C=C/c2ccco2)n[nH]1	18.6
O=C(O)c1c2c(nc3ccc(Cl)cc13)CCC2	13.2
CC[n+]1ccc(C)c2cc(P(=O)(c3ccccc3)c3ccccc3)ccc21	72.9
O=C(CC1C(=O)NCCN1Cc1ccc(F)cc1)NCCN1CCCc2ccccc21 (configuration not stated)	22.1
COc1ccc(OC)c(S(=O)(=O)Nc2ccc(O)c3ccccc23)c1	83
Cc1ccc(NC(=O)CN(C)C(=O)c2cc(-c3ccco3)nc3ccccc23)cc1	69.2
NS(=O)(=O)c1ccc2c(c1)C1C=CCC1C(C1CC=CCC1)N2 (configuration not stated)	9.98
N#Cc1c(N)sc(=S)c2c1CCCCC2	1.84
O=C1NC(=S)S/C1=C\c1ccc(SCc2ccco2)o1	0.926
N#C/C(=C/c1ccc(N2CCCCCC2)o1)c1cccc(F)c1	98.4
